Experimental data reported in US20230109839A1, “THERAPEUTIC AGENT FOR TAUOPATHIES” (SUMITOMO PHARMA CO., LTD., priority 2020, published 2023).

Biological target: T1, human Nav1.1 (Homo sapiens, UniProt P35498)
T1 construct: host or cells: HEK293
Assay: Amplification of Nav1.1-derived voltage-gated sodium current (Nav1.1 current), automated patch clamp (Test 1)
Assay type: cell-based
Conditions: Concentration for evaluation 1 μM; HEK293 cell line stably expressing human Nav1.1
Protocol: Test 1: Evaluation of the Amplification of Nav1.1-Derived Voltage-Gated Sodium Current (Nav1.1 Current) by Using a Cell Line Stably Expressing Human Nav1.1
(1) Preparation of Test Compound Solution
Test compounds were prepared by dissolving in DMSO at 200 times of the concentration at evaluation, and diluting the obtained solution to twice the concentration of evaluation with an extracellular fluid (135 mmol/L NaCl, 4 mmol/L KCl, 1 mmol/L MgCl2, 5 mmol/L CaCl2, 5 mmol/L Glucose, 10 mmol/L HEPES).
(2) Induction and Measurement of Nav1.1 Current
A HEK293 cell line stably expressing human Nav1.1 (cat #CYL3009, Eurofins DiscoverX Products, LLC, Human Embryonic Kidney 293) was purchased, and used in the present test. Nav1.1 current was induced by stimulating Ramp wave voltage. Detection of current which accompanied with the stimulation of voltage was carried out by a patch-clamp voltage-clamp method using HTS automated patch clamp system (SynchroPatch 768PE, Nanion Technologies GmbH, Germany). Only cells with more than 500 pA of voltage-gated sodium channel current were used for the evaluation of the activity of compounds on Nav1.1 current because there was the possibility that currents derived from endogenous voltage-gated sodium channels accounted for large proportion in cells with less than 500 pA of voltage-gated sodium channel current which was induced by stimulating Ramp wave voltage.
(3) Pharmacological Effect on Nav1.1 Current
The effect of test compounds on the amplification of Nav1.1-derived voltage-gated sodium current was evaluated by using a cell line stably expressing human Nav1.1 and HTS automated patch clamp system. In other words, test compounds were added in an extracellular fluid containing 1% DMSO, and evaluated as a change of the peak value of Nav1.1 current and the area under the curve (AUC).
(4) Method for Pharmacological Evaluation
The Nav1.1 current amplification rates of test compounds were calculated by the following formula:
Nav1.1 current amplification rate (%)=100×[the peak value of Nav1.1 current or the area under the curve after the addition of test compounds]/[the peak value of Nav1.1 current or the area under the curve before the addition of test compounds]−100

With `CC1CC=C(c2ccc(=O)n(CC(=O)N3CCc4c(N5CCOCC5)cccc43)n2)CC1` (stereo not shown) [Example 245] the “Nav1.1 current amplification rate (%)” value was 393%.

Same assay, conditions: Concentration for evaluation 3 μM; HEK293 cell line stably expressing human Nav1.1

Point of comparison: `CC1CC=C(c2ccc(=O)n(CC(=O)N3CCc4c(-c5ccn(C)n5)cccc43)n2)CC1` (stereo not shown) [Example 252], “Nav1.1 current amplification rate (%)” value 254%. Against it:
- CC1CC=C(c2ccc(=O)n(CC(=O)N3CCc4c(-c5cccnc5)cccc43)n2)CC1 (stereo not shown) [Example 248] — higher, 392%
- COc1ncc(-c2cccc3c2CCN3C(=O)Cn2nc(C3=CCC(C)CC3)ccc2=O)cn1 (stereo not shown) [Example 249] — higher, 584%
- CC1CC=C(c2ccc(=O)n(CC(=O)N3CCc4c(-c5ccncc5)cccc43)n2)CC1 (stereo not shown) [Example 250] — higher, 564%
- CC1CC=C(c2ccc(=O)n(CC(=O)N3CCc4c(-c5ccnn5C)cccc43)n2)CC1 (stereo not shown) [Example 251] — higher, 307%
- CC1CC=C(c2ccc(=O)n(CC(=O)N3CCc4c(-c5ccnnc5)cccc43)n2)CC1 (stereo not shown) [Example 253] — higher, 455%
- CC1CC=C(c2ccc(=O)n(CC(=O)N3CCc4c(-c5cn[nH]c5)cccc43)n2)CC1 (stereo not shown) [Example 254] — higher, 309%

Same assay, conditions: Concentration for evaluation 10 μM; HEK293 cell line stably expressing human Nav1.1

Point of comparison: `COc1ccc(NC(=O)Cn2nc(N3CCC(C)CC3)ccc2=O)cn1` [Example 62], “Nav1.1 current amplification rate (%)” value 13%. Against it:
- CC1CCN(c2ccc(=O)n(CC(=O)Nc3cncc(Cl)c3)n2)CC1 [Example 63] — higher, 49%
- COc1cncc(NC(=O)Cn2nc(N3CCC(C)CC3)ccc2=O)c1 [Example 64] — lower, 11%
- CC1CCN(c2ccc(=O)n(CC(=O)Nc3cncc(F)c3)n2)CC1 [Example 65] — higher, 17%
- CC1CCN(c2ccc(=O)n(CC(=O)Nc3ccnc(N4CCOCC4)c3)n2)CC1 [Example 66] — higher, 49%
- CC1CCN(c2ccc(=O)n(CC(=O)Nc3cccc(-n4ccnc4)c3)n2)CC1 [Example 67] — higher, 177%
- Cc1nc2ccc(NC(=O)Cn3nc(N4CCC(C)CC4)ccc3=O)cc2o1 [Example 68] — higher, 42%
- Cc1nc2cc(NC(=O)Cn3nc(N4CCC(C)CC4)ccc3=O)ccc2o1 [Example 69] — higher, 137%
- Cc1noc2ccc(NC(=O)Cn3nc(N4CCC(C)CC4)ccc3=O)cc12 [Example 70] — higher, 68%
- CC1CCN(c2ccc(=O)n(CC(=O)Nc3ccn4nccc4c3)n2)CC1 [Example 71] — higher, 131%
- CC1CCN(c2ccc(=O)n(CC(=O)Nc3ccn4ccnc4c3)n2)CC1 [Example 72] — higher, 119%
- CC1CCN(c2ccc(=O)n(CC(=O)Nc3ccc4ncoc4c3)n2)CC1 [Example 73] — higher, 92%
- COc1cc(NC(=O)Cn2nc(N3CCC(C)CC3)ccc2=O)ccn1 [Example 74] — higher, 70%
- Cc1nccn1-c1cccc(NC(=O)Cn2nc(N3CCC(C)CC3)ccc2=O)c1 [Example 75] — higher, 15%
- CC1CCN(c2ccc(=O)n(CC(=O)Nc3cccc(-c4cnco4)c3)n2)CC1 [Example 77] — higher, 93%
- CC1CCN(c2ccc(=O)n(CC(=O)Nc3cccc(-c4ncco4)c3)n2)CC1 [Example 78] — higher, 78%
- CC1CCN(c2ccc(=O)n(CC(=O)Nc3ccc(C(=O)N4CCCC4)cc3)n2)CC1 [Example 79] — higher, 165%
- CC1CCN(c2ccc(=O)n(CC(=O)Nc3cccc(-c4nccs4)c3)n2)CC1 [Example 80] — higher, 131%
- CC1CCN(c2ccc(=O)n(CC(=O)Nc3ccc4oc(=O)n(C)c4c3)n2)CC1 [Example 81] — higher, 69%
- CC1CCN(c2ccc(=O)n(CC(=O)Nc3ccc4oc(=O)[nH]c4c3)n2)CC1 [Example 82] — higher, 121%
- CC1CCN(c2ccc(=O)n(CC(=O)Nc3ccc4cnn(C)c4c3)n2)CC1 [Example 83] — higher, 45%
- Cc1noc2cc(NC(=O)Cn3nc(N4CCC(C)CC4)ccc3=O)ccc12 [Example 84] — higher, 315%
- CC1CCN(c2ccc(=O)n(CC(=O)Nc3ccc4ncn(C)c4c3)n2)CC1 [Example 85] — higher, 15%
- CC1CCN(c2ccc(=O)n(CC(=O)Nc3ccc4c(c3)NC(=O)C4)n2)CC1 [Example 86] — higher, 73%
- CC1CCN(c2ccc(=O)n(CC(=O)Nc3ccc4scnc4c3)n2)CC1 [Example 87] — higher, 255%
- Cc1nc2cc(NC(=O)Cn3nc(N4CCC(C)CC4)ccc3=O)ccc2s1 [Example 88] — higher, 183%
- CC1CCN(c2ccc(=O)n(CC(=O)Nc3ccc4nccn4c3)n2)CC1 [Example 90] — higher, 31%
- CC1CCN(c2ccc(=O)n(CC(=O)Nc3ccc4oc(N(C)C)nc4c3)n2)CC1 [Example 91] — higher, 93%
- CC1CCN(c2ccc(=O)n(CC(=O)Nc3ccc4sc(N(C)C)nc4c3)n2)CC1 [Example 92] — higher, 88%
- CC1CCN(c2ccc(=O)n(CC(=O)Nc3ccc4c(c3)CCNC4=O)n2)CC1 [Example 93] — higher, 65%
- CC1CCN(c2ccc(=O)n(CC(=O)Nc3cc(Cl)c4ocnc4c3)n2)CC1 [Example 94] — higher, 198%
- Cc1cc(NC(=O)Cn2nc(N3CCC(C)CC3)ccc2=O)cc2ncoc12 [Example 96] — higher, 105%
- CCc1nc2cc(NC(=O)Cn3nc(N4CCC(C)CC4)ccc3=O)ccc2o1 [Example 97] — higher, 296%
- CC1CCN(c2ccc(=O)n(CC(=O)Nc3ccc4c(c3)ncn4C)n2)CC1 [Example 98] — higher, 15%
- COc1nc2cc(NC(=O)Cn3nc(N4CCC(C)CC4)ccc3=O)ccc2o1 [Example 99] — higher, 103%
- Cc1ccc(-c2ccc(=O)n(CC(=O)Nc3cncnc3)n2)cc1 [Example 141] — higher, 46%
- Cc1ccc(-c2ccc(=O)n(CC(=O)Nc3ccnnc3)n2)cc1 [Example 142] — higher, 34%
- Cc1ccc(-c2nn(CC(=O)Nc3ccn4ccnc4c3)c(=O)c(C)c2C)cc1 [Example 156] — higher, 33%
- Cc1ccc(-c2ccc(=O)n(CC(=O)N3CCc4cc(N5CCOCC5)ccc43)n2)cc1 [Example 158] — higher, 122%
- Cc1ccc(-c2ccc(=O)n(CC(=O)N3CCc4cnccc43)n2)cc1 [Example 159] — higher, 32%
- COc1nc2cc(NC(=O)Cn3nc(C4=CCC(C)CC4)ccc3=O)ccc2o1 (stereo not shown) [Example 239] — higher, 310%
- Cc1noc2cc(NC(=O)Cn3nc(C4=CCC(C)CC4)ccc3=O)ccc12 (stereo not shown) [Example 240] — higher, 241%
- CC1CC=C(c2ccc(=O)n(CC(=O)Nc3cc(F)c4ocnc4c3)n2)CC1 (stereo not shown) [Example 241] — higher, 260%
- CC1CC=C(c2ccc(=O)n(CC(=O)Nc3ccn4ccnc4n3)n2)CC1 (stereo not shown) [Example 242] — higher, 97%
- CC1CC=C(c2ccc(=O)n(CC(=O)Nc3ccc4oc(C(F)F)nc4c3)n2)CC1 (stereo not shown) [Example 243] — higher, 276%
- CC1CC=C(c2ccc(=O)n(CC(=O)N3CCc4cc(N5CCOCC5)ccc43)n2)CC1 (stereo not shown) [Example 246] — higher, 136%
- CC1CC=C(c2ccc(=O)n(CC(=O)N3CCc4c3ccnc4Cl)n2)CC1 (stereo not shown) [Example 247] — higher, 53%

Same assay, conditions: Concentration for evaluation 50 μM; HEK293 cell line stably expressing human Nav1.1

`Cc1ccc(-c2ccc(=O)n(CC(=O)N3CCc4ccccc43)n2)cc1` [Example 157] was tested, and the “Nav1.1 current amplification rate (%)” value was 29%.

Same assay, conditions: HEK293, Concentration for evaluation 10 μM; HEK293 cell line stably expressing human Nav1.1; read-out: Nav1.1 current amplification rate (%)

Point of comparison: `N#Cc1cncc(NC(=O)Cn2nc(N3CCCCC3)ccc2=O)c1` [Example 108], activation at 10 µM 5%. Against it:
- Cc1cc(NC(=O)Cn2nc(C3=CCC(F)(F)CC3)ccc2=O)cc(C)n1 [Example 102] — higher, 8%
- O=C(Cn1nc(N2CCCCC2)ccc1=O)Nc1ccc(C(F)(F)F)nc1 [Example 104] — higher, 11%
- N#Cc1ccc(NC(=O)Cn2nc(N3CCCCC3)ccc2=O)cn1 [Example 110] — higher, 12%
- O=C(Cn1nc(N2CCCCC2)ccc1=O)Nc1ccnc(C(F)(F)F)c1 [Example 113] — higher, 30%
- N#Cc1cc(NC(=O)Cn2nc(N3CCCCC3)ccc2=O)ccn1 [Example 116] — higher, 12%
- Cc1nc2cc(NC(=O)Cn3nc(N4CCCCC4)ccc3=O)ccc2o1 [Example 118] — higher, 7%
- CN(C)c1cc(N2CCC3(CCC3)C2)nn(CC(=O)Nc2ccn3ccnc3c2)c1=O [Example 210] — higher, 178%
